Reference: US7361659B2, “Pyrrazolo-pyrimidine derivatives” (Hoffmann-La Roche Inc., priority 2005, dated 2008)

Row | Compound | melting point
1 | Cc1cc(-c2cc(C(F)(F)F)n3ncc(C(=O)Nc4cc(S(=O)(=O)NC(C)(C)CO)sc4Cl)c3n2)ccc1C(F)(F)F [Example 16, 5-(3-Methyl-4-trifluoromethyl-phenyl)-7-trifluoromethyl-pyrazolo[1,5-a]pyrimidine-3-carboxylic acid [2-chloro-5-(2-hydroxy-1,1-dimethyl-ethylsulfamoyl)-thiophen-3-yl]-amide] | 207 °C
2 | NS(=O)(=O)c1cc(NC(=O)c2cnn3c(C(F)F)cc(-c4ccc(C(F)(F)F)cc4)nc23)c(Cl)s1 [Example 1, 7-Difluoromethyl-5-(4-trifluoromethyl-phenyl)-pyrazolo[1,5-a]pyrimidine-3-carboxylic-acid (2-chloro-5-sulfamoyl-thiophen-3-yl)-amide] | 298 °C
3 | CC(C)(CO)NS(=O)(=O)c1cc(NC(=O)c2cnn3c(C4CC4)cc(-c4ccc(Cl)cc4)nc23)c(Cl)s1 [Example 61, 5-(4-Chloro-phenyl)-7-cyclopropyl-pyrazolo[1,5-a]pyrimidine-3-carboxylic acid [2-chloro-5-(2-hydroxy-1,1-dimethyl-ethylsulfamoyl)-thiophen-3-yl]-amide] | 238 to 241 °C
4 | Cc1cc(-c2cc(C(F)F)n3ncc(C(=O)Nc4nc(C)c(S(=O)(=O)NC(C)(C)CO)s4)c3n2)ccc1C(F)(F)F [Example 39, 7-Difluoromethyl-5-(3-methyl-4-trifluoromethyl-phenyl)-pyrazolo[1,5-a]pyrimidine-3-carboxylic acid [5-(2-hydroxy-1,1-dimethyl-ethylsulfamoyl)-4-methyl-thiazol-2-yl]-amide] | 271 °C
5 | CC(C)(CO)NS(=O)(=O)c1cnc(NC(=O)c2cnn3c(C(F)F)cc(-c4ccc(C(F)(F)F)cc4)nc23)s1 [Example 60, 7-Difluoromethyl-5-(4-trifluoromethyl-phenyl)-pyrazolo[1,5-a]pyrimidine-3-carboxylic acid [5-(2-hydroxy-1,1-dimethyl-ethylsulfamoyl)-thiazol-2-yl]-amide] | 280 °C
6 | CN(C)CCNS(=O)(=O)c1cc(NC(=O)c2cnn3c(C(F)F)cc(-c4ccc(C(F)(F)F)cc4)nc23)c(Cl)s1 [Example 54, 7-Difluoromethyl-5-(4-trifluoromethyl-phenyl)-pyrazolo[1,5-a]pyrimidine-3-carboxylic acid [2-chloro-5-(2-dimethylamino-ethylsulfamoyl)-thiophen-3-yl]-amide] | 162 °C
7 | NS(=O)(=O)c1cnc(NC(=O)c2cnn3c(C(F)F)cc(-c4ccc(C(F)(F)F)cc4)nc23)s1 [Example 52, 7-Difluoromethyl-5-(4-trifluoromethyl-phenyl)-pyrazolo[1,5-a]pyrimidine-3-carboxylic acid (5-sulfamoyl-thiazol-2-yl)-amide] | 311 °C
8 | Cc1nc(NC(=O)c2cnn3c(C(F)(F)F)cc(-c4ccc(Cl)cc4)nc23)sc1S(N)(=O)=O [Example 19, 5-(4-Chloro-phenyl)-7-trifluoromethyl-pyrazolo[1,5-a]pyrimidine-3-carboxylic acid (4-methyl-5-sulfamoyl-thiazol-2-yl)-amide] | 305 °C
9 | Cc1cc(-c2cc(C(F)(F)F)n3ncc(C(=O)Nc4cc(S(N)(=O)=O)sc4Cl)c3n2)ccc1C(F)(F)F [Example 11, 5-(3-Methyl-4-trifluoromethyl-phenyl)-7-trifluoromethyl-pyrazolo[1,5-a]pyrimidine-3-carboxylic acid (2-chloro-5-sulfamoyl-thiophen-3-yl)-amide] | 283 °C
10 | CN(CCO)S(=O)(=O)c1cc(NC(=O)c2cnn3c(C(F)F)cc(-c4ccc(C(F)(F)F)cc4)nc23)c(Cl)s1 [Example 72, 7-Difluoromethyl-5-(4-trifluoromethyl-phenyl)-pyrazolo[1,5-a]pyrimidine-3-carboxylic acid {2-chloro-5-[(2-hydroxy-ethyl)-methyl-sulfamoyl]-thiophen-3-yl}-amide] | 231 °C
11 | Cc1nc(NC(=O)c2cnn3c(C(F)(F)F)cc(-c4ccc(C(F)(F)F)c(OCC(F)(F)F)c4)nc23)sc1S(=O)(=O)NC(C)(C)CO [Example 32, 5-[3-(2,2,2-Trifluoro-ethoxy)-4-trifluoromethyl-phenyl]-7-trifluoromethyl-pyrazolo[1,5-a]pyrimidine-3-carboxylic acid [5-(2-hydroxy-1,1-dimethyl-ethylsulfamoyl)-4-methyl-thiazol-2-yl]-amide] | 275 °C
12 | Cc1nc(NC(=O)c2cnn3c(C4CC4)cc(-c4ccc(Cl)cc4)nc23)sc1S(=O)(=O)NC(C)(C)CO [Example 62, 5-(4-Chloro-phenyl)-7-cyclopropyl-pyrazolo[1,5-a]pyrimidine-3-carboxylic acid [5-(2-hydroxy-1,1-dimethyl-ethylsulfamoyl)-4-methyl-thiazol-2-yl]-amide] | 293 to 294 °C
13 | CN1CCN(S(=O)(=O)c2cc(NC(=O)c3cnn4c(C(F)(F)F)cc(-c5ccc(C(F)(F)F)cc5)nc34)c(Cl)s2)CC1 [Example 74, 7-Trifluoromethyl-5-(4-trifluoromethyl-phenyl)-pyrazolo[1,5-a]pyrimidine-3-carboxylic acid [2-chloro-5-(4-methyl-piperazine-1-sulfonyl)-thiophen-3-yl]-amide] | 301 °C
14 | CCOc1cc(-c2cc(C(F)(F)F)n3ncc(C(=O)Nc4nc(C)c(S(=O)(=O)NC(C)(CO)CO)s4)c3n2)ccc1C(F)(F)F [Example 53, 5-(3-Ethoxy-4-trifluoromethyl-phenyl)-7-trifluoromethyl-pyrazolo[1,5-a]pyrimidine-3-carboxylic acid [5-(2-hydroxy-1-hydroxymethyl-1-methyl-ethylsulfamoyl)-4-methyl-thiazol-2-yl]-amide] | 220 °C
15 | NCCNS(=O)(=O)c1cc(NC(=O)c2cnn3c(C(F)F)cc(-c4ccc(C(F)(F)F)cc4)nc23)c(Cl)s1 [Example 65, 7-Difluoromethyl-5-(4-trifluoromethyl-phenyl)-pyrazolo[1,5-a]pyrimidine-3-carboxylic acid [5-(2-amino-ethylsulfamoyl)-2-chloro-thiophen-3-yl]-amide] | 150 °C

Further lines, results first:

Row | melting point | Compound
16 | 166 °C | Cc1nc(NC(=O)c2cnn3c(C(F)(F)F)cc(-c4ccc(C(F)(F)F)cc4)nc23)sc1S(=O)(=O)NCCO [Example 46, 7-Trifluoromethyl-5-(4-trifluoromethyl-phenyl)-pyrazolo[1,5-a]pyrimidine-3-carboxylic acid [5-(2-hydroxy-ethylsulfamoyl)-4-methyl-thiazol-2-yl]-amide]
17 | 235 °C | Cc1nc(NC(=O)c2cnn3c(C(F)(F)F)cc(-c4ccc(C(F)(F)F)cc4)nc23)sc1S(=O)(=O)NCCN(C)C [Example 58, 7-Trifluoromethyl-5-(4-trifluoromethyl-phenyl)-pyrazolo[1,5-a]pyrimidine-3-carboxylic acid [5-(2-dimethylamino-ethylsulfamoyl)-4-methyl-thiazol-2-yl]-amide]
18 | 274 °C | Cc1nc(NC(=O)c2cnn3c(C(F)(F)F)cc(-c4ccc(C(F)(F)F)c(Cl)c4)nc23)sc1S(=O)(=O)NC(C)(C)CO [Example 30, 5-(3-Chloro-4-trifluoromethyl-phenyl)-7-trifluoromethyl-pyrazolo[1,5-a]pyrimidine-3-carboxylic acid [5-(2-hydroxy-1,1-dimethyl-ethylsulfamoyl)-4-methyl-thiazol-2-yl]-amide]
19 | 215 °C | Cc1nc(NC(=O)c2cnn3c(C(F)(F)F)cc(-c4ccc(C(F)(F)F)cc4)nc23)sc1S(=O)(=O)NC(CO)CO [Example 64, 7-Trifluoromethyl-5-(4-trifluoromethyl-phenyl)-pyrazolo[1,5-a]pyrimidine-3-carboxylic acid [5-(2-hydroxy-1-hydroxymethyl-ethylsulfamoyl)-4-methyl-thiazol-2-yl]-amide]
20 | 248 °C | Cc1nc(NC(=O)c2cnn3c(C(F)F)cc(-c4ccc(C(F)(F)F)cc4)nc23)sc1S(=O)(=O)NC(C)(CO)CO [Example 43, 7-Difluoromethyl-5-(4-trifluoromethyl-phenyl)-pyrazolo[1,5-a]pyrimidine-3-carboxylic acid [5-(2-hydroxy-1-hydroxymethyl-1-methyl-ethylsulfamoyl)-4-methyl-thiazol-2-yl]-amide]
21 | 268 °C | Cc1nc(NC(=O)c2cnn3c(C(F)F)cc(-c4ccc(C(F)(F)F)cc4)nc23)sc1S(=O)(=O)NC(C)(C)CO [Example 14, 7-Difluoromethyl-5-(4-trifluoromethyl-phenyl)-pyrazolo[1,5-a]pyrimidine-3-carboxylic acid [5-(2-hydroxy-1,1-dimethyl-ethylsulfamoyl)-4-methyl-thiazol-2-yl]-amide]
22 | 225 °C | Cc1sc(S(=O)(=O)NC(C)(C)CO)cc1NC(=O)c1cnn2c(C(F)(F)F)cc(-c3ccc(C(F)(F)F)cc3)nc12 [Example 49, 7-Trifluoromethyl-5-(4-trifluoromethyl-phenyl)-pyrazolo[1,5-a]pyrimidine-3-carboxylic acid [5-(2-hydroxy-1,1-dimethyl-ethylsulfamoyl)-2-methyl-thiophen-3-yl]-amide]
23 | 191 °C | O=C(Nc1cc(S(=O)(=O)NCCO)sc1Cl)c1cnn2c(C(F)(F)F)cc(-c3ccc(C(F)(F)F)cc3)nc12 [Example 36, 7-Trifluoromethyl-5-(4-trifluoromethyl-phenyl)-pyrazolo[1,5-a]pyrimidine-3-carboxylic acid [2-chloro-5-(2-hydroxy-ethylsulfamoyl)-thiophen-3-yl]-amide]
24 | 216 °C | Cc1nc(NC(=O)c2cnn3c(C(F)F)cc(-c4ccc(C(F)(F)F)cc4)nc23)sc1S(=O)(=O)N(C)CCO [Example 70, 7-Difluoromethyl-5-(4-trifluoromethyl-phenyl)-pyrazolo[1,5-a]pyrimidine-3-carboxylic acid {5-[(2-hydroxy-ethyl)-methyl-sulfamoyl]-4-methyl-thiazol-2-yl}-amide]
25 | 250 °C | Cc1nc(NC(=O)c2cnn3c(C(F)(F)F)cc(-c4ccc(C(F)(F)F)cc4)nc23)sc1S(=O)(=O)NC(C)(CO)CO [Example 42, 7-Trifluoromethyl-5-(4-trifluoromethyl-phenyl)-pyrazolo[1,5-a]pyrimidine-3-carboxylic acid [5-(2-hydroxy-1-hydroxymethyl-1-methyl-ethylsulfamoyl)-4-methyl-thiazol-2-yl]-amide]
